# Measurements published in a melting point compilation (Tetko et al.; mined from patent text by program, amines drawn as free bases though some values may be those of a salt).
row,Compound,melting point [°C]
1,CC(=O)OC1CSC(Oc2cnccc2-c2ccoc2)C(OC(C)=O)C1OC(C)=O (centres undefined),167
2,CCC1CCC(=NO)C=C1c1ccc(OCC(=O)O)c(Cl)c1Cl (centres undefined),88 to 90
3,Nc1nc2c(sc(=O)n2C2OC(COC(=O)c3ccccc3)C(OC(=O)c3ccccc3)C2OC(=O)c2ccccc2)c(=O)[nH]1 (centres undefined),248 to 250
4,CC(CC(=O)O)Oc1ccc(Oc2ccccc2)c(NS(C)(=O)=O)c1 (centres undefined),121 to 124
5,N#CCNC1(c2ccccc2Cl)C(=O)Nc2ccc(Cl)cc21 (centres undefined),240 to 241
6,CNC(=S)NS(=O)(=O)c1cc2c(cc1OC)OCC(NC(=O)c1cc(F)ccc1OC)C2 (centres undefined),221 to 222
7,N#CCCNC(=O)c1cccc(-c2cccc3c2OC(Cc2cccc(C(F)(F)F)c2)C3)c1 (centres undefined),145 to 146
8,CS(=O)(=O)Nc1cc([C@@H](O)CNC2CCN(c3ccc(/C=C/C(=O)O)cc3)CC2)ccc1O,220
9,COC(=O)COc1ccc(C(=O)NC(=O)Nc2ccc(C#N)cc2)cc1,204 to 207
10,O=c1[nH]c(Cc2cccc(O)c2)cc2ccccc12,225 to 227
11,CCOC(=O)c1cn(CCF)c2nc(N3CCN(C(C)=O)CC3)c(F)cc2c1=O,183 to 185
12,CC1(O)CC(=O)OC(CCc2ccc(Cl)cc2)C1Br (centres undefined),116 to 119
13,Cc1cc2c(cc1S(=O)(=O)c1cc(Cl)ccc1Cl)OC(C(=O)O)O2 (centres undefined),155 to 157
14,COc1ccc2c(c1)NC(=O)C(C(=O)N(C)C)C2 (centres undefined),209 to 210
15,CCCCCCCCCC/C=C\COCc1ccc(CCC(=O)O)cc1,35 to 36
16,CCSc1ccc2c(c1)NC(=O)C2,125 to 126
17,O=C1C(=Cc2ccccc2O)c2ccccc2N1C1=NCCS1,196 to 197
18,O=c1c2ccccc2ccn1Cc1ccc(F)cc1,107
19,CN(CCc1ccc2c(c1)oc(=O)n2C)Cc1ccccc1,72 to 73
20,CCOC(=O)C1=C(CO)NC(C)=C(C(=O)OCCO)C1c1ccccc1[N+](=O)[O-] (centres undefined),167 to 169
21,COc1ccc2c(c1)CCC1=C2CCCN1C(C)=O,119 to 120
22,Cc1c(C)c2ccc(CCCCCN3CCN(c4cccc(Cl)c4Cl)CC3)nc2[nH]c1=O,202 to 203
23,Cc1cc(SCc2ccc(-c3ccc(C(F)(F)F)cn3)cc2)c2c(c1OCC(=O)O)CCCO2,156 to 157
24,CC(=O)C1=CCC2C3CCC4CC(OS(=O)(=O)c5ccc(C)cc5)CCC4(C)C3C(=O)CC12C (centres undefined),147 to 151
25,COc1ccccc1N1CCN(CC(O)CS(=O)c2ccc(F)cc2)CC1 (centres undefined),164 to 165

row,Compound,melting point [°C]
1,Cc1cc(C2=NOC(c3cc(Cl)cc(Cl)c3)(C(F)(F)F)C2)ccc1C(=O)N(C)c1cncnc1 (centres undefined),197 to 200
2,NS(=O)(=O)c1ccc(NC(=O)Nc2ccccc2)cc1,233 to 235
3,NC(=O)CN1C(=O)Cc2cc(Cl)ccc21,226
4,CC(C)Cn1c(CNC(=O)OC(C)(C)C)c(-c2ccccc2)c2cc(-c3nc(C#N)cs3)ccc2c1=O,209 to 211
5,COc1ccc(Cn2cc(C(=O)NCCN(C)C)c3nc4c(C)cccc4cc3c2=O)cc1OC,213 to 214
6,COc1ccc2cc(C3=CC4CCC(C3)N4)ccc2c1 (centres undefined),138
7,Cc1c(Cl)ccc(C(N)=O)c1N,206 to 208
8,CCCCCCCOc1ccc(-c2ccc(N=Nc3ccc([N+](=O)[O-])cc3)cc2)cc1,147 to 148
9,Cc1cc(C)cc(Oc2ccc([N+](=O)[O-])cc2S(=O)(=O)N2CCN(C(=O)OC(C)(C)C)CC2)c1,232 to 233
10,CC(C)NC(=O)c1cnc(N2CCC(N3C(=O)COc4ccccc43)CC2)c(Cl)c1,85 to 88
11,CC(C)(C)NC(=O)[C@@H]1C[C@H](Cl)CN1C(=O)[C@@H](O)[C@H](Cc1ccccc1)NC(=O)[C@H](CC(N)=O)NC(=O)c1cc2cc(F)ccc2[nH]1,141 to 143
12,CC(C)(C)NC(=O)CN1C(=O)C(NC(=O)Nc2cccc(Cl)c2)CC(C2CCCCC2)c2ccccc21 (centres undefined),223 to 226
13,C=CS(=O)(=O)C(C(=O)NC)S(=O)(=O)C=C,143 to 147
14,CSc1ccc(C2=C(c3ccc(Cl)cc3)CCC2)cc1,72 to 74
15,COc1ccc(Cl)cc1C(=O)NC1COc2cc(OC)c(S(=O)(=O)NC(=O)NC(C)C)cc2C1 (centres undefined),181 to 183
16,CCN1C(=O)CSC1=NOC(=O)N(C)SC(Cl)(Cl)Cl,126 to 128
17,NS(=O)(=O)c1cccnc1OCC1CC1,121 to 122
18,COc1ccc(CCNc2nc(Cl)nc(N3CCc4cc(OC)c(OC)cc4C3)n2)cc1OC,152 to 153
19,O=S(=O)(c1cc(C(F)(F)F)[nH]c1-c1ccc(Cl)cc1)C(F)(F)F,167 to 169
20,Cc1coc2cc(O)ccc12,92
21,CCCc1c(OCCCCCC(=O)O)ccc(C(C)=O)c1O,62 to 64
22,COC1CSC2=C(SC1)C(OC(=O)N1CCN(C)CC1)N(c1ccc(Cl)cn1)C2=O (centres undefined),197
23,OC1(c2ccc(F)c(F)c2)CCC2(CC1)OCCO2,118 to 120
24,c1cc2c3c(c1)nc(N1CCC(c4c[nH]cn4)CC1)n3CCC2,250 to 255
